Assay results as given in patent US20240197743A1, “WEE1 COMPOUND FOR TREATING UTERINE SEROUS CARCINOMA” (Recurium IP Holdings, LLC, priority 2021, published 2024).

Tests used:
[1] = test system: multiple cell lines and xenograft models; assay: in vitro antitumor activity in multiple cell lines and xenograft models; format: cell-based
[2] = test system: subjects with uterine serous carcinoma (USC); assay: ZN-c3-001 (NCT04158336) open label, multicenter, Phase I dose escalation and expansion study; subjects with USC at doses ≥300 mg QD; format: in vivo, human; conditions: for Spleen: baseline 21 mm; for Peritoneum: baseline 17.8 mm
Procedure: ZN-c3-001 (NCT04158336) is an open label, multicenter, Phase I dose escalation and expansion study evaluating the safety and clinical activity of ZN-c3 in subjects with advanced or metastatic solid tumors, refractory to standard therapy or for whom no standard therapy is available. Oral, daily ZN-c3 dosing was escalated from 25 mg to 450 mg once daily (QD), with a recommended phase 2 dose of 300 mg QD. Here we report preliminary safety and efficacy results for subjects with USC who received ZN-c3 at doses ≥300 mg QD.

[3] = subject #1, Follow-up 1 (February 2021)
[4] = subject #1, Follow-up 2 (April 2021)
[5] = subject #1, Follow-up 3 (June 2021)
[6] = subject #2, Follow-up 1 (March 2021)
[7] = subject #2, Follow-up 2 (April 2021)
[8] = subject #2, Follow-up 2 (April 2021), baseline 15 mm
[9] = subject #2, Follow-up 3 (June 2021)
[10] = subject #2, Follow-up 3 (June 2021), baseline 15 mm
[11] = subject #2, Follow-up 4 (July 2021)
[12] = subject #2, Follow-up 4 (July 2021), baseline 15 mm
[13] = subject #2, Follow-up 5 (August 2021)
[14] = subject #2, Follow-up 5 (August 2021), baseline 15 mm
[15] = subject #3, Follow-up 1 (May 2021)
[16] = subject #3, Follow-up 2 (July 2021)
[17] = subject #3, Follow-up 3 (August 2021)
[18] = subject #3, Follow-up 4 (September 2021)
[19] = subject #3, Follow-up 5 (November 2021)

## C=CCn1c(=O)c2cnc(Nc3ccc(N4CCN(C)CC4)cc3)nc2n1-c1ccc2c(n1)[C@@](O)(CC)CC2 [ZN-c3, (R)-2-allyl-1-(7-ethyl-7-hydroxy-6,7-dihydro-5H-cyclopenta[b]pyridin-2-yl)-6-((4-(4-methylpiperazin-1-yl)phenyl)amino)-1,2-dihydro-3H-pyrazolo[3,4-d]pyrimidin-3-one]
[1]
  antitumor activity: significant in vitro antitumor activity
[2]; 1 of 11 evaluable USC subjects, ≥300 mg QD
  progressive disease as best overall response: 9.1%
[2]; 3 of 11 evaluable USC subjects, ≥300 mg QD
  confirmed partial response as best overall response: 27.3%
[2]; 7 of 11 evaluable USC subjects, ≥300 mg QD
  stable disease as best overall response: 63.6%
[2]; 11 evaluable USC subjects, ≥300 mg QD
  Disease control rate (complete response, partial response, and stable disease): 90.9%
[2]; 14 USC subjects, ≥300 mg QD
  Grade ≥3 TRAEs occurring in ≥2 subjects: anemia and thrombocytopenia
  TRAEs grades 1-4 occurring in ≥3 subjects, by decreasing frequency: nausea, vomiting, diarrhea, fatigue, decreased appetite, dehydration, and anemia
  subjects reporting at least one treatment-related adverse event (TRAE): 12 of 14
  subjects with each Grade ≥3 hematologic event (anemia, thrombocytopenia): 2 subjects each
[2]; single agent, oral doses ≥300 mg QD
  safety and tolerability: safe and well-tolerated
[2]; subject #1, 2nd restaging (April 2021) vs baseline (November 2020)
  peritoneum imaging result (FIG. 1): confirmed partial response
[2]; subject #1, start 350 mg QD
  best response: Confirmed PR
  reduction overall: 49%
  time on the study drug until radiologic disease progression: 199 days
[2]; subject #1, start 350 mg QD, Follow-up 1 (February 2021), baseline 24 mm
  Target Lesions: 15 mm
[2]; subject #1, start 350 mg QD, after ~3 months of treatment, baseline 36 U/mL
  Tumor marker CA-125, minimum: 12 U/mL
[2]; [3]
  New Lesions: No
  Percentage of overall tumor reduction: −48.9%
  Tumor Response by RECIST 1.1: Partial
  Spleen: 8 mm
[2]; subject #1, Follow-up 1 (February 2021), baseline 45 mm
  Target Lesions Sum: 23 mm
[2]; [4]
  New Lesions: No
  Percentage of overall tumor reduction: −48.9%
  Tumor Response by RECIST 1.1: Partial
  Spleen: 7 mm
[2]; subject #1, Follow-up 2 (April 2021), baseline 24 mm
  Target Lesions: 16 mm
[2]; subject #1, Follow-up 2 (April 2021), baseline 45 mm
  Target Lesions Sum: 23 mm
[2]; [5]
  New Lesions: No
  Percentage of overall tumor reduction: −48.9%
  Tumor Response by RECIST 1.1: Progressive
  Spleen: 7 mm
[2]; subject #1, Follow-up 3 (June 2021), baseline 24 mm
  Target Lesions: 16 mm
[2]; subject #1, Follow-up 3 (June 2021), baseline 45 mm
  Target Lesions Sum: 23 mm
[2]; subject #2, 1st restaging (March 2021) vs baseline (January 2021)
  peritoneum imaging result (FIG. 2): partial response
[2]; subject #2, start 300 mg QD
  best response: Confirmed PR
  reduction overall: 43%
  time on the study drug until radiologic disease progression: 230 days
[2]; subject #2, start 300 mg QD, Follow-up 1 (March 2021), baseline 15 mm
  Target Lesions: 06 mm
[2]; subject #2, start 300 mg QD, after 2 months of treatment, baseline 440 U/mL
  Tumor marker CA-125: < 50 U/mL
[2]; [6]
  New Lesions: No
  Percentage of overall tumor reduction: −43%
  Tumor Response by RECIST 1.1: Partial Response
[2]; subject #2, Follow-up 1 (March 2021), baseline 15 mm
  Lymph Node: 11 mm
[2]; subject #2, Follow-up 1 (March 2021), baseline 30 mm
  Target Lesions Sum: 17 mm
[2]; [7]
  New Lesions: No
  Percentage of overall tumor reduction: −43%
  Tumor Response by RECIST 1.1: Partial Response
[2]; [8]
  Lymph Node: 10 mm
  Target Lesions: 07 mm
[2]; subject #2, Follow-up 2 (April 2021), baseline 30 mm
  Target Lesions Sum: 17 mm
[2]; [9]
  New Lesions: No
  Percentage of overall tumor reduction, from baseline: −40% from baseline
  Percentage of overall tumor reduction, from nadir: +6% from nadir
  Tumor Response by RECIST 1.1: Partial Response
[2]; [10]
  Lymph Node: 10 mm
  Target Lesions: 8 mm
[2]; subject #2, Follow-up 3 (June 2021), baseline 30 mm
  Target Lesions Sum: 18 mm
[2]; [11]
  New Lesions: No
  Percentage of overall tumor reduction, from baseline: −30% from baseline
  Percentage of overall tumor reduction, from nadir: +24% from nadir
  Tumor Response by RECIST 1.1: Partial Response
[2]; [12]
  Lymph Node: 10 mm
  Target Lesions: 11 mm
[2]; subject #2, Follow-up 4 (July 2021), baseline 30 mm
  Target Lesions Sum: 21 mm
[2]; [13]
  New Lesions: No
  Percentage of overall tumor reduction, from baseline: −30% from baseline
  Percentage of overall tumor reduction, from nadir: +24% from nadir
  Tumor Response by RECIST 1.1: Progressive Disease
[2]; [14]
  Lymph Node: 10 mm
  Target Lesions: 11 mm
[2]; subject #2, Follow-up 5 (August 2021), baseline 30 mm
  Target Lesions Sum: 21 mm
[2]; subject #3, 5th restaging (November 2021) vs baseline (April 2021)
  peritoneum imaging result (FIG. 3): complete response
[2]; subject #3, start 300 mg QD
  best response: Unconfirmed Complete Response
  reduction overall: 100%
  time on the study drug until clinical disease progression: 252 days
[2]; subject #3, start 300 mg QD, Follow-up 1 (May 2021), baseline 36.6 mm
  Target Lesions: 21.7 mm
[2]; [15]
  New Lesions: No
  Percentage of overall tumor reduction: −32%
  Tumor Response by RECIST 1.1: Partial Response
  Peritoneum: 15.3 mm
[2]; subject #3, Follow-up 1 (May 2021), baseline 54.4 mm
  Target Lesions Sum: 37 mm
[2]; [16]
  New Lesions: No
  Percentage of overall tumor reduction: −67.8%
  Tumor Response by RECIST 1.1: Partial Response
[2]; subject #3, Follow-up 2 (July 2021), (too small)
  Peritoneum: 5 mm (too small)
[2]; subject #3, Follow-up 2 (July 2021), baseline 36.6 mm
  Target Lesions: 12.5 mm
[2]; subject #3, Follow-up 2 (July 2021), baseline 54.4 mm
  Target Lesions Sum: 17.5 mm
[2]; [17]
  New Lesions: No
  Percentage of overall tumor reduction: −76.5%
  Tumor Response by RECIST 1.1: Partial Response
[2]; subject #3, Follow-up 3 (August 2021), (too small)
  Peritoneum: 5 mm (too small)
[2]; subject #3, Follow-up 3 (August 2021), baseline 36.6 mm
  Target Lesions: 7.8 mm
[2]; subject #3, Follow-up 3 (August 2021), baseline 54.4 mm
  Target Lesions Sum: 12.8 mm
[2]; [18]
  New Lesions: No
  Percentage of overall tumor reduction: −82%
  Tumor Response by RECIST 1.1: Partial Response
[2]; subject #3, Follow-up 4 (September 2021), (too small)
  Peritoneum: 5 mm (too small)
[2]; subject #3, Follow-up 4 (September 2021), baseline 36.6 mm, (too small)
  Target Lesions: 5 mm (too small)
[2]; subject #3, Follow-up 4 (September 2021), baseline 54.4 mm
  Target Lesions Sum: 10 mm
[2]; [19]
  New Lesions: No
  Percentage of overall tumor reduction: −100%
  Tumor Response by RECIST 1.1: Complete Response
  Peritoneum: 0 mm
[2]; subject #3, Follow-up 5 (November 2021), baseline 36.6 mm
  Target Lesions: 0 mm
[2]; subject #3, Follow-up 5 (November 2021), baseline 54.4 mm
  Target Lesions Sum: 0 mm
[2]; subjects with recurrent or advanced USC, Examples 1-3
  clinical activity: demonstrated clinical activity
